Measurements published in article PMC13500670, “The U1 snRNP protein U1C and Helix H of U1 snRNA are critical for small molecule splicing modulator function” (Nature Communications, 2026).

How the values were obtained:
[1] = system: 5' end of U1 snRNA + HTT 5' ss oligo with -1A deleted; assay: FP: 5' end of U1 snRNA + HTT 5' ss oligo with -1A deleted (Supplementary Fig. 5D); format: binding, human
Protocol: (§1) To ensure the presence of a −1A bulge in the RNA duplex, we extended the U1 snRNA to nucleotide 1–16 and generated an artificial HTT 5′ ss oligo that added 4 additional nucleotides upstream of the −4C nucleotide to ensure stable base pairing upstream of the potential −1A bulge.
(§2) All of 5′-FAM labeled RNA oligos used in this study were synthesized and purified by IDT (USA). Fluorescence polarization (FP) assays were performed in binding buffer (20 mM HEPES pH 7.5, 1 mM MgCl2, 200 mM KCl, 0.01% TritonX-100, 0.1%PEG3350, 2%DMSO) at room temperature using a Envision HTS Plate Reader system (Revvity). […] The equilibrium dissociation constants (Kd) of binding reaction were calculated using the following single-site binding model formula in GraphPad Prism: y=START+(END−START)x/kD+x where x and y represent the concentration of U1 snRNP (or U1 snRNA) and the polarization value measured respectively, START represents the polarization value of protein-free nucleic acid probe, END represents the maximum polarization value when U1 snRNP (or U1 snRNA) binds to the fluorescently labeled 5′ ss oligo. […]

[2] = target: T1, native U1 snRNP + SMN2 5' ss oligo (Homo sapiens, UniProt P09234); assay: FP: native U1 snRNP binding to SMN2 5' ss oligo with DMSO or compound; conditions: Fig. 1B; 10 μM branaplam
T1 construct: we added a large excess of full-length U1C (800 nM) expressed in and purified from E. coli; endogenous in cells; host or cells: HeLa-S3 with CRISPR knock-in of a C-terminal HTP tag on U1A; the added U1C came from E. coli
Protocol: (§3) We engineered a protein A-tag on U1A in HeLa cells using CRISPR-Cas9 and purified native U1 snRNP using the protein A tag and IgG resin (Supplementary Fig. 1A). […] Since U1C is weakly associated with U1 snRNP and may fall off at low U1 snRNP concentrations, we added a large excess of full-length U1C (800 nM) expressed in and purified from E. coli in all binding reactions unless otherwise stated.
(§4) U1A-HTP cells were adapted to grow in suspension in Joklik’s MEM (Sigma) supplemented with 5% (v/v) newborn calf serum and 1× Pluronic™ F-68 (Gibco). […]
as §2

[3] = system: c12orf4 iExon 1a, DENND4A, SCO1, DPH1 iExon inclusion; assay: End-point RT-PCR of iExon inclusion, scr control versus U1C KD; format: cell-based, human; conditions: c12orf4 iExon 1a and DENND4A; 3uM, 1uM, 250nm, 100nM
Protocol: A total of 500,000 SH-SY5Y cells were plated in 6-well tissue culture plates. After 4 h of recovery, cells were transfected with final 100 nM siRNA (silencer select s13212 or negative control No.2 from Ambion) using Lipofectamin RNAi Max (ThermoFisher) according to the manufacturer’s protocol. After 24 h incubation, cells were treated with splicing modulating compounds for additional 24 h. Cells were lysed in RLT buffer ( + beta-mercaptoethanol) and RNA was extracted using the RNeasy kit (Qiagen) according to the manufacturer’s protocol.
Knockdown was confirmed by RT-qPCR using TaqMan assays (Hs00863364_gH, Hs02758991_g1, from ThermoFisher). Splicing changes were confirmed by endpoint PCR using the primer sets listed in Supplementary Table 1. Relative amounts of U1C RNA were calculated for control knockdown vs. U1C knockdown (normalized to GAPDH expression level).
HEK293 cells were transfected for siRNA in 6-well plates, similarly as for RNA-sequencing above. […] Overexpression of 1.5 μg pMEV-2HA-EV or pMEV-U1C-2HA was carried out with Lipofectamine3000 (L3000008) 6 h later. RNA was harvested 24 h later, extracted as above, and reverse transcribed with a Qiagen QuantiTect RT kit (205311). […]

[4] = system: SMN2 exon 7 skipping, HEK293T cells; assay: SMN2 splicing minigene reporter assay (luciferase); format: cell-based; conditions: Homo sapiens, HEK-293T, Fig. 3A, 36 h, 0.012 to 9 µM
Protocol: Exon 7 inclusion places the GLuc gene out of frame, thereby reducing luciferase activity. […] Transfection was performed in 10 cm dishes using Lipofectamine 2000 (Thermo, #11668019) according to the manufacturer’s protocol. […] Compounds were dispensed in duplicate across a 1:3 serial dilution series ranging from 0.012 to 9 µM. Following a 36 h incubation at 37 °C, luciferase activity was assessed by adding 12 µL of a custom luciferase reagent to each well. The luciferase reagent (12 mL total volume) consisted of 60 µL 50× coelenterazine substrate (Nanolight, #320), 3 mL Nanolight GLuc buffer, 30 µL 10% Triton X-100 (Thermo, #A16046.AP), and 8.9 mL deionized water. Plates were shaken at 600 rpm for 6 min, and luminescence was measured using a Cytation 5 multimode plate reader (BioTek). Half-maximal effective concentration (EC50) values were calculated using GraphPad Prism (v10.4) with four-parameter nonlinear regression curve fitting.

[5] = system: cassette exon / GA/GU iExon inclusion, HEK293 cells, scr siRNA; assay: RNA-seq splicing analysis, compound dose response, scrambled (mock) siRNA; format: cell-based, human
Text: (§5) Skipped exons are highly enriched for noncanonical 5′ ss sequences (on either the intronic or exonic side), which account for 90% of skipped exons (Supplementary Fig. 8C). For example, among skipped exons with a canonical exonic 5′ ss sequence, 74% contain noncanonical intron sequence. These observations are consistent with the previous published role for U1C stabilization of the U1 snRNA-pre-mRNA duplex at the 5′ ss[25]–[28]. […] We will refer to these as class I exons for clarity in later discussion.
(§6) We next examined the effect of U1C knockdown on compound-mediated splicing. […] We next used the complete dose response to calculate the effective concentration at which deltaPSIcompound-DMSO is 30 (EC-dPSI30).
(§7) HEK293T cells were grown in DMEM media with 10% FBS. 500,000 cells in 1.75 mL of media were plated into a 6-well plate for approximately 6 h. Either siRNA negative control (ThermoFisher Silencer^TM Negative control #2, AM4613) or U1C siRNA (ThermoFisher Silencer^TM Select Pre-designed siRNA, S13225) were transfected for a final concentration of 25 nM using Invitrogen Lipofectamine RNAiMax (13778-150). In brief, 10 μL 5 μM siRNA was added to 115 μL of OptiMEM, while 5 μL Lipofectamine added to 120 μL OptiMEM for 5 minu before mixing the solutions and incubating for 20 min. 250 μL of Lipofectamine:siRNA solution was gentle added to the 1.75 mL cells. After 24 h post-transfection, cells were treated with 10 μL compound resuspended in DMSO. […] Each compound-treated experimental condition was treated and collected in duplicate, while four DMSO only treated samples per siRNA transfection were collected. RNA was isolated using KingFisher^TM Apex instrument and the MagMAX™ mirVana™ Total RNA Isolation Kit (A27828) by Thermo Fisher according to manufacturer’s protocol. Isolated RNA was submitted to Admera Health for library preparation (polyA selected, stranded) and mRNA-sequencing and >20 M 150 bp pair-end reads were returned.
RNAseq and splicing analysis were described earlier using DEDseq (https:// github.com/liwc01/DEDSeq[18]) with minor modifications. RNA sequencing reads were mapped to human genome (hg19) using STAR (version 2.7.10b); only uniquely mapped reads (with MAPQ > 10) with <5 nt/100 nt mismatches and properly paired reads were used. For splicing analysis, all junction reads (read with a gap in alignment indicating splicing) were used, including the ones mapped to unannotated splice sites. Reads were counted for different exons (for cassette exon [CE]) or exonic regions (for A5′ss or A3′ss). For each splicing event, a percent-spliced-in (PSI) value was calculated using the percent of average read number supporting the inclusion among all reads supporting either the inclusion or the exclusion. A minimum of 10 for the denominator of PSI calculation was required. Otherwise, a “NA” value would be generated. PSI values for biological replicates were averaged, and the PSI difference between the two treatment groups was calculated. For a statistical test, a 2 × 2 read counts table was made for each event, with rows for reads supporting inclusion or exclusion, and columns for the two comparing sample groups. Fisher’s exact test was used for the statistical tests. For biological replicates, each pair of the testing and control sample was analyzed by Fisher’s exact test and the geometric mean of all P-values was reported as a final P-value. PSI change (deltaPSI) of >10% (or < −10%) and P < 0.001 was used to select splicing events being regulated by the treatment. PSI calculation, Fisher’s exact test were performed using R (4.0.5). 5′ ss composition analysis was performed as described in ref. [25]. Potency of splicing modulator was determined by plotting dPSI and identifying the concentration at which the change in PSI reached 30% and reported as EC_dPSI30.

[6] = system: cassette exon / GA/GU iExon inclusion, HEK293 cells, U1C KD; assay: RNA-seq splicing analysis, compound dose response, U1C knockdown; format: cell-based, human
Text: as §5, §6, §7
RNAseq and splicing analysis were described earlier using DEDseq (https:// github.com/liwc01/DEDSeq[18]) with minor modifications. RNA sequencing reads were mapped to human genome (hg19) using STAR (version 2.7.10b); only uniquely mapped reads (with MAPQ > 10) with <5 nt/100 nt mismatches and properly paired reads were used. For splicing analysis, all junction reads (read with a gap in alignment indicating splicing) were used, including the ones mapped to unannotated splice sites. Reads were counted for different exons (for cassette exon [CE]) or exonic regions (for A5′ss or A3′ss). For each splicing event, a percent-spliced-in (PSI) value was calculated using the percent of average read number supporting the inclusion among all reads supporting either the inclusion or the exclusion. A minimum of 10 for the denominator of PSI calculation was required. Otherwise, a “NA” value would be generated. PSI values for biological replicates were averaged, and the PSI difference between the two treatment groups was calculated. For a statistical test, a 2 × 2 read counts table was made for each event, with rows for reads supporting inclusion or exclusion, and columns for the two comparing sample groups. […] For biological replicates, each pair of the testing and control sample was analyzed by Fisher’s exact test and the geometric mean of all P-values was reported as a final P-value. […] Potency of splicing modulator was determined by plotting dPSI and identifying the concentration at which the change in PSI reached 30% and reported as EC_dPSI30.

[7] = system: splicing events in human SH-SY5Y cells; conditions: 24 nM (approximately 2 times the IC50 for HTT), 24 h; cited from earlier work
[8] = system: full length U1 snRNA + HTT 5' ss oligo with -1A deleted; assay: FP: full-length U1 snRNA + HTT 5' ss oligo with -1A deleted (Supplementary Fig. 5E); format: binding, human
Protocol: as §1, §2

[9] = target: T2, native U1 snRNP + HTT 5' ss oligo (Homo sapiens, UniProt P09234); assay: FP: native U1 snRNP binding to HTT 5' ss oligo; conditions: Fig. 1C; 10 μM branaplam
T2 construct: we added a large excess of full-length U1C (800 nM) expressed in and purified from E. coli; endogenous in cells; host or cells: HeLa-S3 with CRISPR knock-in of a C-terminal HTP tag on U1A; the added U1C came from E. coli
Protocol: as §3, §4, §2

[10] = system: U1 snRNA nucleotide 1-16 + artificial HTT 5' ss oligo; assay: FP: U1 snRNA nucleotide 1-16 + artificial HTT 5' ss oligo with -1A bulge (Supplementary Fig. 5F); format: binding, human
Protocol: as §1, §2

[11] = system: SMN2 pre-mRNA + native or reconstituted U1 snRNP; assay: Pull-down of native or reconstituted U1 snRNP by immobilized SMN2 pre-mRNA; format: binding, human; conditions: Fig. 1F; 50 μM Branaplam vs 0.5% DMSO
Text: In this assay, we immobilized Minx (as a positive control with a canonical 5′ ss) or SMN2 pre-mRNA containing the weak 5′ ss of exon 7 on amylose resin, pulled down either native or reconstituted U1 snRNP, and analyzed the RNAs in the pulldown samples as a surrogate of the amount of U1 snRNP bound to the pre-mRNA.
The SMN2 pre-mRNA fragment used in pull down experiment contains 100 nt up and downstream of the 5′ ss of SMN2 intron 7 followed by three copies of MS2 tag. It was cloned downstream of a T7 promoter in the Sp72 vector. The SMN2 pre-mRNA was in vitro transcribed and purified by 7 M Urea denaturing gel.
The complex was then incubated with amylose resin and washed with the same buffer. The resins were treated in 5 μl buffer containing 1 mg/ml proteinase K at 37 °C for 30 min to release the RNAs. The resulting samples were run on 6% denaturing polyacrylamide gel and stained with Sybr Gold to visualize the RNAs.

CC1(C)CC(Oc2ccc(-c3ccc(-c4cn[nH]c4)cc3O)nn2)CC(C)(C)N1 [Branaplam, branaplam]
effect of compound on binding [1]: not improved | increase of binding affinity by compound versus DMSO [2]: about twofold | effect of U1C knockdown on compound potency by end-point PCR [3]: reduces | EC50 [4]: 59.6 nM | PSI of CMSS1 iExon ([5]; 5nM branaplam): 6 | PSI of WNK4 iExon ([5]; 5nM branaplam): 6.7 | PSI of PDXDC1 iExon ([5]; 5nM, mock, DMSO baseline […]): 2.9 PSI | geomean pEC_dPSI30 for all GA/GU iExons ([5]; Fig. 8C, mock knockdown, -log10 of compound concentration when dPSI achieves 30%): 6.61 | number of exons with GA/GU 5' ss significantly induced with deltaPSI compound-DMSO >10 ([5]; highest concentration of branaplam): approximately 1200 | saturation PSI of PDXDC1 iExon ([5]; highest dose, mock and U1C KD reach similar saturation): ~50 | PSI of PDXDC1 iExon ([6]; 5nM, U1C KD, DMSO baseline […]): 2.6 PSI | U1CKD Log10 effect ([6]; Fig. 8C picture, pEC-dPSI30 mock versus U1C KD): -0.51 | geomean pEC_dPSI30 for all GA/GU iExons ([6]; Fig. 8C, U1C KD): 6.10 | number of splicing events affected [7]: 165 | effect of compound on binding [8]: not improved | increase of binding affinity by compound versus DMSO [9]: about twofold | effect of compound on binding affinity [10]: no effect | amount of native or reconstituted U1 snRNP pulled down by SMN2 pre-mRNA [11]: significantly increased
